# Like-named read-outs stand apart in the source and are kept apart here. Where a SMILES comes first, the peptide text is derived from it. Bridges are numbered along the chain shown (N, C = ends). [ ]: non-standard residue; d: D form. R8 = C=CCCCCCC[C@@](C)(N)C(=O)O; S5 = C=CCCC[C@](C)(N)C(=O)O
# Assays:
# [1] = tested on: Caspase 3; experiment: Caspase 3 detection assay in SJSA1 cells; type: cell-based; settings: 48 h, Caspase 3 activation over DMSO-treated cells; for caspase 0.3 uM: 0.3 uM peptide; for caspase 3 uM: 3 uM peptide; for caspase 10 uM: 10 uM peptide; for caspase 30 uM: 30 uM peptide
# [2] = molecular target: T1, MDMX (Homo sapiens, UniProt O15151); experiment: Competitive fluorescence polarization assay for MDMX; type: binding; settings: competitive FP assay
# T1 sequence (O15151 1-125): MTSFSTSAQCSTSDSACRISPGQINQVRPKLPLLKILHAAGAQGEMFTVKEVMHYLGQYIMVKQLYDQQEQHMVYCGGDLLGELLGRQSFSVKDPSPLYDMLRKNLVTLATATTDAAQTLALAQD
# [3] = molecular target: MDM2 (Homo sapiens, UniProt Q00987); experiment: Competitive fluorescence polarization assay for MDM2; type: binding; settings: competitive FP assay, MDM2
# Chain of MDM2 (Q00987 1-125): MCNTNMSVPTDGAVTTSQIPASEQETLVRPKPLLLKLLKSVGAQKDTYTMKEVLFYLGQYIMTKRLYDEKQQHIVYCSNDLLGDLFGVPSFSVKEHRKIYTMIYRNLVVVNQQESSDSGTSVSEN
# [4] = tested on: SJSA-1 cells; experiment: Cell lysis by peptidomimetic macrocycles (LDH release); type: cell-based; settings: 1 h at 37C
SMILES,IC50 ([2]; read-out: IC50 (MDMX)),Ki ([2]; read-out: Ki (MDMX)),IC50 ([3]; read-out: IC50 (MDM2)),Ki ([3]; read-out: Ki (MDM2)),caspase 0.3 uM [1],caspase 3 uM [1],caspase 10 uM [1],caspase 30 uM [1],6.25 uM % Lysed cells (1 h LDH) [4],25 uM % Lysed cells (1 h LDH) [4],50 uM % Lysed cells (1 h LDH) [4],IC50 ([2]; IC50 (MDMX)),Ki ([2]; Ki (MDMX)),IC50 ([3]; IC50 (MDM2)),Ki ([3]; Ki (MDM2))
CC(=O)N[C@@H](CC(C)C)C(=O)N[C@H](C(=O)N[C@@H](Cc1ccccc1)C(=O)N[C@]1(C)CCCCCCC=CCCC[C@@](C)(C(=O)N[C@@H](CO)C(=O)N[C@H](C(=O)NCC(N)=O)C(C)C)NC(=O)[C@H](CC(C)C)NC(=O)[C@H](CCC(N)=O)NC(=O)[C@H](C)NC(=O)[C@H](Cc2c[nH]c3ccccc23)NC(=O)[C@H](Cc2ccc(O)cc2)NC(=O)[C@H](C)NC1=O)[C@@H](C)O [compound 123] (Ac-LTF[R8]AYWAQL[S5]SVG-NH2; staple 4-11),100 to 1000 nM,10 to 100 nM,< 10 nM,< 10 nM,1,1,6,14,−2%,5%,3%,–,–,–,–
CC(=O)N[C@@H](CCC(=O)O)C(=O)N[C@H](C(=O)N[C@@H](Cc1ccccc1)C(=O)N[C@]1(C)CCCCCCC=CCCC[C@@](C)(C(=O)N[C@@H](CO)C(=O)N[C@@H](C)C(=O)N[C@@H](C)C(N)=O)NC(=O)[C@H](CC(C)C)NC(=O)[C@H](CCC(N)=O)NC(=O)[C@H](C)NC(=O)[C@H](Cc2c[nH]c3ccccc23)NC(=O)[C@H](Cc2ccc(O)cc2)NC(=O)[C@H](C(C)C)NC1=O)[C@@H](C)O [compound 125] (Ac-ETF[R8]VYWAQL[S5]SAA-NH2; staple 4-11),100 to 1000 nM,10 to 100 nM,< 10 nM,< 10 nM,1,3,9,29,0%,0%,2%,–,–,–,–
CC(=O)N[C@@H](CCC(=O)O)C(=O)N[C@H](C(=O)N[C@@H](Cc1ccccc1)C(=O)N[C@]1(C)CCCCCCC=CCCC[C@@](C)(C(=O)N[C@@H](CO)C(=O)N[C@H](C(=O)N[C@@H](C)C(N)=O)C(C)C)NC(=O)[C@H](CC(C)C)NC(=O)[C@H](CCC(N)=O)NC(=O)[C@H](C)NC(=O)[C@H](Cc2c[nH]c3ccccc23)NC(=O)[C@H](Cc2ccc(O)cc2)NC(=O)[C@H](C(C)C)NC1=O)[C@@H](C)O [compound 126] (Ac-ETF[R8]VYWAQL[S5]SVA-NH2; staple 4-11),100 to 1000 nM,10 to 100 nM,< 10 nM,< 10 nM,1,1,6,30,1%,1%,1%,–,–,–,–
CC(=O)N[C@@H](CCC(=O)O)C(=O)N[C@H](C(=O)N[C@@H](Cc1ccccc1)C(=O)N[C@]1(C)CCCCCCC=CCCC[C@@](C)(C(=O)N[C@@H](CO)C(=O)N[C@H](C(=O)N[C@@H](CO)C(N)=O)C(C)C)NC(=O)[C@H](CC(C)C)NC(=O)[C@H](CCC(N)=O)NC(=O)[C@H](C)NC(=O)[C@H](Cc2c[nH]c3ccccc23)NC(=O)[C@H](Cc2ccc(O)cc2)NC(=O)[C@H](C(C)C)NC1=O)[C@@H](C)O [compound 130] (Ac-ETF[R8]VYWAQL[S5]SVS-NH2; staple 4-11),100 to 1000 nM,10 to 100 nM,< 10 nM,< 10 nM,1,2,6,17,1%,0%,−1%,–,–,–,–
CC(=O)N[C@@H](CCC(=O)O)C(=O)N[C@H](C(=O)N[C@@H](Cc1ccccc1)C(=O)N[C@]1(C)CCCCCCC=CCCC[C@@](C)(C(=O)N[C@@H](CO)C(=O)N[C@@H](C)C(=O)N[C@@H](C)C(N)=O)NC(=O)[C@H](CC(C)C)NC(=O)[C@H](CCC(N)=O)NC(=O)[C@H](C)NC(=O)[C@H](Cc2c[nH]c3ccccc23)NC(=O)[C@H](Cc2ccc(O)cc2)NC(=O)[C@H](CCC(=O)O)NC1=O)[C@@H](C)O [compound 161] (Ac-ETF[R8]EYWAQL[S5]SAA-NH2; staple 4-11),100 to 1000 nM,10 to 100 nM,< 10 nM,< 10 nM,2,8,14,22,1%,−1%,0%,–,–,–,–
CC[C@H](C)[C@H](NC(C)=O)C(=O)N[C@H](C(=O)N[C@@H](Cc1ccccc1)C(=O)N[C@]1(C)CCCCCCC=CCCC[C@@](C)(C(=O)N[C@@H](C)C(=O)N[C@@H](C)C(=O)N[C@H](C(=O)N[C@H](C)C(N)=O)[C@@H](C)CC)NC(=O)[C@H](CC(C)C)NC(=O)[C@H](CCC(N)=O)NC(=O)[C@H](C(C)C)NC(=O)[C@H](Cc2c[nH]c3ccccc23)NC(=O)[C@H](Cc2ccc(O)cc2)NC(=O)[C@H](Cc2ccccc2)NC1=O)[C@@H](C)O [compound 177] (Ac-ITF[R8]FYWVQL[S5]AAI[dA]-NH2; staple 4-11),100 to 1000 nM,10 to 100 nM,10 to 100 nM,< 10 nM,1,1,8,20,−1%,0%,1%,–,–,–,–
CC(=O)N[C@@H](CC(C)C)C(=O)N[C@H](C(=O)N[C@@H](Cc1ccccc1)C(=O)N[C@]1(C)CCCCCCC=CCCC[C@@](C)(C(=O)N[C@@H](CO)C(=O)N[C@@H](C)C(=O)N[C@@H](C)C(N)=O)NC(=O)[C@H](CC(C)C)NC(=O)[C@H](C)NC(=O)[C@H](C)NC(=O)[C@H](Cc2c[nH]c3ccccc23)NC(=O)[C@H](Cc2c[nH]cn2)NC(=O)[C@H](C)NC1=O)[C@@H](C)O [compound 197] (Ac-LTF[R8]AHWAAL[S5]SAA-NH2; staple 4-11),–,–,–,–,1,1,10,20,1%,−1%,−2%,100 to 1000 nM,10 to 100 nM,< 10 nM,< 10 nM

# Further lines, with some results ahead:
IC50 ([2]; read-out: IC50 (MDMX)),Ki ([2]; read-out: Ki (MDMX)),IC50 ([3]; read-out: IC50 (MDM2)),Ki ([3]; read-out: Ki (MDM2)),SMILES,caspase 0.3 uM [1],caspase 3 uM [1],caspase 10 uM [1],caspase 30 uM [1],6.25 uM % Lysed cells (1 h LDH) [4],25 uM % Lysed cells (1 h LDH) [4],50 uM % Lysed cells (1 h LDH) [4],IC50 ([2]; IC50 (MDMX)),Ki ([2]; Ki (MDMX)),IC50 ([3]; IC50 (MDM2)),Ki ([3]; Ki (MDM2))
100 to 1000 nM,10 to 100 nM,< 10 nM,< 10 nM,CC(=O)N[C@@H](CC(C)C)C(=O)N[C@H](C(=O)N[C@@H](Cc1ccccc1)C(=O)N[C@]1(C)CCCCCCC=CCCC[C@@](C)(C(=O)N[C@@H](CO)C(=O)N[C@@H](C)C(=O)N[C@@H](CO)C(N)=O)NC(=O)[C@H](CC(C)C)NC(=O)[C@H](CCC(N)=O)NC(=O)[C@H](C)NC(=O)[C@H](Cc2c[nH]c3ccccc23)NC(=O)[C@H](Cc2ccc(O)cc2)NC(=O)[C@H](C)NC1=O)[C@@H](C)O [compound 122] (Ac-LTF[R8]AYWAQL[S5]SAS-NH2; staple 4-11),1,2,15,30,1%,0%,6%,–,–,–,–
100 to 1000 nM,10 to 100 nM,< 10 nM,< 10 nM,CC[C@H](C)[C@H](NC(=O)[C@H](C)NC(=O)[C@H](C)NC(=O)[C@]1(C)CCCC=CCCCCCC[C@@](C)(NC(=O)[C@H](Cc2ccccc2)NC(=O)[C@@H](NC(=O)[C@H](CC(C)C)NC(C)=O)[C@@H](C)O)C(=O)N[C@@H](C)C(=O)N[C@@H](Cc2c[nH]cn2)C(=O)N[C@@H](Cc2c[nH]c3ccccc23)C(=O)N[C@@H](C)C(=O)N[C@@H](CCC(N)=O)C(=O)N[C@@H](CC(C)C)C(=O)N1)C(=O)N[C@H](C)C(N)=O [compound 170] (Ac-LTF[R8]AHWAQL[S5]AAI[dA]-NH2; staple 4-11),1,1,16,20,2%,1%,−1%,–,–,–,–
100 to 1000 nM,10 to 100 nM,10 to 100 nM,< 10 nM,CC(=O)N[C@@H](CC(C)C)C(=O)N[C@H](C(=O)N[C@@H](Cc1ccccc1)C(=O)N[C@]1(C)CCCCCCC=CCCC[C@@](C)(C(=O)N[C@@H](CO)C(=O)N[C@@H](C)C(=O)N[C@@H](C)C(N)=O)NC(=O)[C@H](CC(C)C)NC(=O)[C@H](C)NC(=O)[C@H](C(C)C)NC(=O)[C@H](Cc2c[nH]c3ccccc23)NC(=O)[C@H](Cc2ccc(O)cc2)NC(=O)[C@H](C)NC1=O)[C@@H](C)O [compound 196] (Ac-LTF[R8]AYWVAL[S5]SAA-NH2; staple 4-11),1,4,33,26,0%,0%,3%,–,–,–,–

# From patent US8927500B2, “Peptidomimetic macrocycles” (Aileron Therapeutics, Inc., priority 2012, dated 2015)
